Columns and labels:
Format in all cases: functional
[1] = Effect on glucose-dependent insulin secretion activity per ug of total protein in rat RIN5F cells at 0.1 uM after 30 mins
[2] = Effect on glucose-dependent insulin secretion activity per ug of total protein in rat RIN5F cells at 1 uM after 30 mins
[3] = Effect on glucose-dependent insulin secretion activity per ug of total protein in rat RIN5F cells at 10 uM after 30 mins

Compound	Activity [1]	Activity [2]	Activity [3]
COC(=O)c1cc2c3cc(C)cnc3n(C)c2c(C)n1	14.8 pg/µg/h	15.2 pg/µg/h	15.9 pg/µg/h
COC(=O)C1Cc2c([nH]c3ncc(C)cc23)C(c2ccccc2)N1 (stereo unspecified)	11 pg/µg/h	11.9 pg/µg/h	12.2 pg/µg/h
COC(=O)c1cc2c3cc(C)cnc3n(C)c2cn1	14.3 pg/µg/h	14.9 pg/µg/h	15.6 pg/µg/h
Cc1cnc2[nH]c3c(-c4ccccc4)nc(C(=O)O)cc3c2c1	17.1 pg/µg/h	19.3 pg/µg/h	21.4 pg/µg/h
COC(=O)C1Cc2c([nH]c3ncc(C)cc23)C(C2CCCCC2)N1 (stereo unspecified)	10.9 pg/µg/h	11.5 pg/µg/h	11.9 pg/µg/h
COC(=O)c1cc2c([nH]c3ncc(C)cc32)c(-c2ccccc2)n1	13.9 pg/µg/h	14.2 pg/µg/h	14.9 pg/µg/h
Cn1c2ncccc2c2cc(C(=O)O)nc(Cc3ccccc3)c21	18.5 pg/µg/h	19.4 pg/µg/h	22.2 pg/µg/h
Cn1c2ncccc2c2cc(C(=O)O)nc(C3CCCCC3)c21	16.1 pg/µg/h	18.4 pg/µg/h	21.4 pg/µg/h
O=C(O)c1cc2c(cn1)[nH]c1ncccc12	14.1 pg/µg/h	16.2 pg/µg/h	18 pg/µg/h
COC(=O)c1cc2c([nH]c3ncc(C)cc32)c(C)n1	13.5 pg/µg/h	13.9 pg/µg/h	14.2 pg/µg/h
COC(=O)c1cc2c([nH]c3ncccc32)c(-c2ccccc2)n1	12 pg/µg/h	12.6 pg/µg/h	12.9 pg/µg/h
COC(=O)C1Cc2c(n(C)c3ncccc23)CN1 (stereo unspecified)	10.8 pg/µg/h	11.2 pg/µg/h	11.5 pg/µg/h
Cc1cnc2[nH]c3c(Cc4ccccc4)nc(C(=O)O)cc3c2c1	18 pg/µg/h	19.2 pg/µg/h	22.1 pg/µg/h
COC(=O)c1cc2c3cccnc3n(C)c2c(C)n1	13.4 pg/µg/h	13.9 pg/µg/h	14.1 pg/µg/h
O=C(O)c1cc2c([nH]c3ncccc32)c(C2CCCCC2)n1	15.5 pg/µg/h	17.1 pg/µg/h	20.4 pg/µg/h
COC(=O)C1Cc2c([nH]c3ncccc23)C(C2CCCCC2)N1 (stereo unspecified)	10.2 pg/µg/h	10.7 pg/µg/h	11 pg/µg/h
COC(=O)C1Cc2c(n(C)c3ncccc23)C(c2ccccc2)N1 (stereo unspecified)	11 pg/µg/h	11.9 pg/µg/h	12.2 pg/µg/h
COC(=O)C1Cc2c(n(C)c3ncc(C)cc23)CN1 (stereo unspecified)	12.2 pg/µg/h	13.1 pg/µg/h	14.1 pg/µg/h
Cc1nc(C(=O)O)cc2c1[nH]c1ncccc12	15.4 pg/µg/h	17.4 pg/µg/h	20.1 pg/µg/h

Compound	Activity [1]	Activity [2]	Activity [3]
O=C(O)c1cc2c([nH]c3ncccc32)c(Cc2ccccc2)n1	17.1 pg/µg/h	18.3 pg/µg/h	21.5 pg/µg/h
Cc1cnc2c(c1)c1cc(C(=O)O)nc(C)c1n2C	18.1 pg/µg/h	22 pg/µg/h	28.3 pg/µg/h
COC(=O)c1cc2c(cn1)[nH]c1ncc(C)cc12	13.1 pg/µg/h	13.2 pg/µg/h	13.9 pg/µg/h
COC(=O)c1cc2c3cccnc3n(C)c2cn1	13 pg/µg/h	13.1 pg/µg/h	13.9 pg/µg/h
Cc1cnc2c(c1)c1cc(C(=O)O)nc(C3CCCCC3)c1n2C	18.2 pg/µg/h	23.1 pg/µg/h	28.2 pg/µg/h
COC(=O)C1Cc2c([nH]c3ncccc23)C(C)N1 (stereo unspecified)	10.1 pg/µg/h	10.6 pg/µg/h	10.9 pg/µg/h
COC(=O)C1Cc2c([nH]c3ncc(C)cc23)C(Cc2ccccc2)N1 (stereo unspecified)	11.5 pg/µg/h	12.2 pg/µg/h	12.9 pg/µg/h
COC(=O)c1cc2c(cn1)[nH]c1ncccc12	11 pg/µg/h	11.9 pg/µg/h	12 pg/µg/h
COC(=O)C1Cc2c([nH]c3ncc(C)cc23)CN1 (stereo unspecified)	10.8 pg/µg/h	11.2 pg/µg/h	11.5 pg/µg/h
COC(=O)c1cc2c([nH]c3ncccc32)c(C2CCCCC2)n1	11.9 pg/µg/h	12.1 pg/µg/h	12.5 pg/µg/h
Cn1c2ncccc2c2cc(C(=O)O)nc(-c3ccccc3)c21	17.2 pg/µg/h	19.3 pg/µg/h	21.1 pg/µg/h
Cc1cnc2[nH]c3c(C4CCCCC4)nc(C(=O)O)cc3c2c1	16.3 pg/µg/h	18.4 pg/µg/h	21.2 pg/µg/h
COC(=O)c1cc2c3cccnc3n(C)c2c(Cc2ccccc2)n1	14 pg/µg/h	14.6 pg/µg/h	15 pg/µg/h
Cc1cnc2[nH]c3c(C)nc(C(=O)O)cc3c2c1	16.2 pg/µg/h	18.5 pg/µg/h	21.1 pg/µg/h
COC(=O)c1cc2c3cccnc3n(C)c2c(-c2ccccc2)n1	13.9 pg/µg/h	14.1 pg/µg/h	14.8 pg/µg/h
Cc1cnc2c(c1)c1cc(C(=O)O)nc(-c3ccccc3)c1n2C	19.1 pg/µg/h	26 pg/µg/h	32.2 pg/µg/h
COC(=O)C1Cc2c([nH]c3ncccc23)C(c2ccccc2)N1 (stereo unspecified)	10.8 pg/µg/h	11.2 pg/µg/h	11.5 pg/µg/h
COC(=O)c1cc2c([nH]c3ncc(C)cc32)c(Cc2ccccc2)n1	14.1 pg/µg/h	14.8 pg/µg/h	15.1 pg/µg/h
COC(=O)C1Cc2c(n(C)c3ncccc23)C(C)N1 (stereo unspecified)	10.9 pg/µg/h	11.5 pg/µg/h	11.9 pg/µg/h

Compound	Activity [1]	Activity [2]	Activity [3]
COC(=O)c1cc2c([nH]c3ncccc32)c(C)n1	11 pg/µg/h	12.1 pg/µg/h	12.5 pg/µg/h
O=C(O)c1cc2c([nH]c3ncccc32)c(-c2ccccc2)n1	16.2 pg/µg/h	18.1 pg/µg/h	20.6 pg/µg/h
COC(=O)C1Cc2c(n(C)c3ncccc23)C(Cc2ccccc2)N1 (stereo unspecified)	11.5 pg/µg/h	12.2 pg/µg/h	12.9 pg/µg/h
COC(=O)C1Cc2c([nH]c3ncccc23)CN1 (stereo unspecified)	10.1 pg/µg/h	10.6 pg/µg/h	10.9 pg/µg/h
COC(=O)C1Cc2c([nH]c3ncccc23)C(Cc2ccccc2)N1 (stereo unspecified)	10.9 pg/µg/h	11.5 pg/µg/h	11.9 pg/µg/h
COC(=O)C1Cc2c(n(C)c3ncc(C)cc23)C(C2CCCCC2)N1 (stereo unspecified)	12.4 pg/µg/h	13.4 pg/µg/h	14.2 pg/µg/h
COC(=O)c1cc2c3cc(C)cnc3n(C)c2c(-c2ccccc2)n1	15.1 pg/µg/h	15.6 pg/µg/h	16.2 pg/µg/h
COC(=O)C1Cc2c(n(C)c3ncccc23)C(C2CCCCC2)N1 (stereo unspecified)	10.9 pg/µg/h	11.5 pg/µg/h	11.9 pg/µg/h
COC(=O)c1cc2c3cccnc3n(C)c2c(C2CCCCC2)n1	13.4 pg/µg/h	13.9 pg/µg/h	14.2 pg/µg/h
COC(=O)c1cc2c([nH]c3ncccc32)c(Cc2ccccc2)n1	12.9 pg/µg/h	13 pg/µg/h	13.5 pg/µg/h
Cn1c2cnc(C(=O)O)cc2c2cccnc21	15.2 pg/µg/h	17.4 pg/µg/h	19.1 pg/µg/h
COC(=O)C1Cc2c(n(C)c3ncc(C)cc23)C(C)N1 (stereo unspecified)	12.3 pg/µg/h	13.2 pg/µg/h	14 pg/µg/h
Cc1nc(C(=O)O)cc2c3cccnc3n(C)c12	16.2 pg/µg/h	18.1 pg/µg/h	21.5 pg/µg/h
COC(=O)C1Cc2c([nH]c3ncc(C)cc23)C(C)N1 (stereo unspecified)	10.9 pg/µg/h	11.5 pg/µg/h	11.9 pg/µg/h
COC(=O)C1Cc2c(n(C)c3ncc(C)cc23)C(c2ccccc2)N1 (stereo unspecified)	13.5 pg/µg/h	14.9 pg/µg/h	15.2 pg/µg/h
Cc1cnc2c(c1)c1cc(C(=O)O)ncc1n2C	17.3 pg/µg/h	20 pg/µg/h	24.2 pg/µg/h
COC(=O)c1cc2c3cc(C)cnc3n(C)c2c(C2CCCCC2)n1	14.8 pg/µg/h	15.2 pg/µg/h	15.9 pg/µg/h
Cc1cnc2[nH]c3cnc(C(=O)O)cc3c2c1	15.1 pg/µg/h	17.3 pg/µg/h	19.2 pg/µg/h
COC(=O)c1cc2c([nH]c3ncc(C)cc32)c(C2CCCCC2)n1	13.5 pg/µg/h	14 pg/µg/h	14.3 pg/µg/h

— ChEMBL document CHEMBL1149631, “Synthesis of 3,8,9-trisubstituted-1,7,9-triaza-fluorene-6-carboxylic acid derivatives as a new class of insulin secretagogues” (Bioorg Med Chem, 2007)
